Literature values, collected in patent publication US20080221033A1, “Monitoring of Cardiac Natriuretic Peptides During Diagnosis, Management, and Treatment of Cardiac Diseases” (Koninklijke Philips Electronics N. V., priority 2005, published 2008).
Read-outs that look alike come from different tables or passages of the source.

What was measured:
[1] = tested on: patients hospitalized with congestive heart failure
[2] = patients hospitalized with congestive heart failure

## brain natriuretic peptide [BNP]
In vivo
  terminal half-life in the bloodstream (in words): a few minutes to a few hours

## nesiritide
[1]; decompensated heart failure, vs nitroprusside, nitroglycerin, dobutamine, milrinone
  effectiveness versus parenteral vasodilators and inotropic agents: more effective
[1]; human, in vivo
  onset of action: 15 min
  tolerability versus parenteral vasodilators and inotropic agents: better tolerated
[1]; [2]
  pulmonary arterial pressure: reduces
  pulmonary capillary wedge pressure: reduces
  right atrial pressure: reduces
  systemic vascular resistance: reduces
[1]; typical cardiac patients
  onset of therapeutic action: about 15 minutes

B1: N-terminal pro-BNP (protein, UniProt P16860 27-102, looked up)
NT-proBNP: HPLGSPGSASDLETSGLQEQRNHLQGKLSELQVEQTSLEPLQESPRPTGVWKSREVATEGIRGHRKMVLYTLRAPR
modifications: NT-proBNP
bloodstream, 'believed to be'
  terminal half-life in the bloodstream (in words): about a month or longer
